What was measured:
[1] = system: THP-1 derived macrophage-like cells; assay: LPS/IFNγ-mediated cytokine secretion from THP-1 derived macrophage-like cells (MSD multiplex, ELISA); assay type: cell-based; details: 2 h before LPS/IFNγ for 5 h
Protocol: (§1) (FIG. 2A) JLat 5A8 or 10.6 clones were stimulated with appropriate stimuli in the presence or absence of L-glutamic acid or vehicle control (cell culture suitable HCl solution). Geometric mean fluorescence intensity (MFI) of HIV-regulated GFP expression was measured by flow cytometry. Cell viability was determined by LIVE/DEAD aqua staining. (FIG. 2B) J-Lat 5A8 cells (n=3) and (FIG. 2C) J-Lat 10.6 cells (n=3), were treated with PMA/I (2 nM/500 nM), ImmunoCult Human CD3/CD28 T Cell Activator (25 μl per 10^6 cells), or TNFα (10 ng/ml) in the presence or absence of L-glutamic acid (5 mM) or appropriate control. Bar graphs display mean±SD values, and statistical comparisons were performed using two-tailed unpaired t-tests. (FIG. 2D) THP-1 cells were differentiated into macrophage-like cells using PMA. Cells were then treated with L-glutamic acid (5 mM), Pyruvic acid (2 mM), or appropriate controls for 2 hours prior to LPS/IFNγ stimulation for 5 hours. […] Bar graphs display mean±SD, and statistical comparisons were performed using two-tailed unpaired t-tests. […] Bar graphs display mean±SD, and statistical comparisons were performed using two-tailed unpaired t-tests.
In-vitro examination of the impact of L-glutamic acid and pyruvate on myeloid inflammation. THP1 cells were plated in 24-well plates at a density of 7×10^5 cells per well. To differentiate them into macrophages-like, 100 nM of PMA (Sigma catalog #P8139) was added and incubated for 72 hours. After incubation, media was aspirated, and each well was gently washed twice with R10 media. Cells were then rested for 24 hours on R10 media without PMA. After 24 hours, cells were washed again with serum-free RPMI 1640 media and kept on this media for the rest of experiment. Macrophage-like THP1 cells were pre-incubated with L-glutamic acid (5 mM) or Sodium Pyruvate solution (2 mM, Sigma catalog #S8636-100 ml) for 2 hours before stimulating with Escherichia coli serotype O127:B8 LPS (50 ng/ml; Sigma catalog #L3129-10MG) and IFNγ (10 ng/ml; R&D Systems catalog #285-IF-100, respectively). After 5 hours of incubation with LPS/IFNγ, culture supernatants were collected for cytokine quantitation. Supernatant levels of IL-10, IL-12p70, IL-13, IL-1β, IL-2, IL-4, IL-6, and IL-8 were determined using U-PLEX Proinflam Combo 1 (Meso Scale Diagnostic #K15049k-1) according to manufacture. Levels of TNF-α were quantified using DuoSet ELISA kits (R&D Systems catalog #DY210-05).
Beyond the direct impact on latent viral reactivation, plasma metabolites may exert effects on myeloid inflammation, and such effects may underlie HIV control during ATI. This possibility was tested by examining the effects of L-glutamic acid and pyruvate on lipopolysaccharides (LPS)-mediated secretion of pro-inflammatory cytokines from THP-1 derived macrophage-like cells. These cells are characterized by high basal glycolytic activity, which closely reflects the Warburg-like phenotype observed in HIV-infected individuals37. […] Cells were treated with L-glutamic acid, pyruvate, or appropriate controls for 2 h before stimulating with LPS and IFNγ for 5 h (FIG. 2D).

[2] = system: J-Lat 5A8 cells (latent HIV provirus); details: J-Lat clone 5A8
Protocol: as §1
Bar graphs display mean±SD values, and statistical comparisons were performed using two-tailed unpaired t-tests.

[3] = system: J-Lat 10.6 cells (latent HIV provirus); details: J-Lat clone 10.6
Protocol: as §1

[4] = pyruvate 2 mM, listed as Pyruvate
[5] = L-glutamic acid 5 mM with stimuli
[6] = L-glutamic acid 5 mM, 24 hours, vs stimuli alone

| SMILES | LPS/IFNγ-mediated IL-6 secretion ([1]; pyruvate 2 mM) | LPS/IFNγ-mediated TNFα secretion ([1]; pyruvate 2 mM) | LPS/IFNγ-mediated IL-6 secretion [1, 4] | LPS/IFNγ-mediated TNFα secretion [1, 4] | Cell viability (LIVE/DEAD aqua staining) [2, 5] | PMA/ionomycin-induced reactivation of latent HIV (GFP MFI) [2, 6] | αCD3/αCD28-induced reactivation of latent HIV (GFP MFI) [2, 6] | Cell viability (LIVE/DEAD aqua staining) [3, 5] | PMA/ionomycin-induced reactivation of latent HIV (GFP MFI) [3, 6] | TNFα-induced reactivation of latent HIV (GFP MFI) ([3]; TNFα 10 ng/ml, L-glutamic acid 5 mM, 24 hours) | LPS/IFNγ-mediated IL-6 secretion ([1]; L-glutamic acid 5 mM) | LPS/IFNγ-mediated TNFα secretion ([1]; L-glutamic acid 5 mM) | LPS/IFNγ-mediated anti-inflammatory IL-10 production ([1]; L-glutamic acid 5 mM) |
| --- | --- | --- | --- | --- | --- | --- | --- | --- | --- | --- | --- | --- | --- |
| CC(=O)C(=O)O [pyruvate, Pyruvic acid] | increased | increased | significantly increased | significantly increased | – | – | – | – | – | – | – | – | – |
| N[C@@H](CCC(=O)O)C(=O)O [L-glutamic acid] | – | – | – | – | without impacting viability | significantly inhibited | significantly inhibited | without impacting viability | inhibited | inhibited | significantly inhibited | significantly inhibited | significantly increased |
